Laboratory results as given in the supplement of paper PMC13380429.

Tests used:
Conditions in all cases: 72 h
[1] = tested on: Caco-2; assay: cell viability relative to DMSO; higher = less toxic
[2] = tested on: U2OS; assay: as above
[3] = tested on: Calu-3; assay: as above
[4] = tested on: HepG2; assay: as above
[5] = tested on: Vero E6; assay: as above
[6] = tested on: Caco-2; assay: relative viability EC50 (midpoint between 100% and the lowest measured viability); higher = less toxic
[7] = tested on: U2OS; assay: as above
[8] = tested on: Calu-3; assay: as above
[9] = tested on: HepG2; assay: as above
[10] = tested on: Vero E6; assay: as above
[11] = tested on: Caco-2; assay: drug sensitivity score (DSS) for viability; higher = more toxic; extreme values may be limits of the assay
[12] = tested on: U2OS; assay: as above
[13] = tested on: Calu-3; assay: as above
[14] = tested on: HepG2; assay: as above
[15] = tested on: Vero E6; assay: as above

| Structure (SMILES) | cell viability ([1]; 1 nM) | cell viability ([1]; 10 nM) | cell viability ([1]; 100 nM) | cell viability ([1]; 1000 nM) | cell viability ([1]; 10000 nM) | cell viability ([2]; 1 nM) | cell viability ([2]; 10 nM) | cell viability ([2]; 100 nM) | cell viability ([2]; 1000 nM) | cell viability ([2]; 10000 nM) | cell viability ([3]; 1 nM) | cell viability ([3]; 10 nM) | cell viability ([3]; 100 nM) | cell viability ([3]; 1000 nM) | cell viability ([3]; 10000 nM) | cell viability ([4]; 1 nM) | cell viability ([4]; 10 nM) | cell viability ([4]; 100 nM) | cell viability ([4]; 1000 nM) | cell viability ([4]; 10000 nM) | cell viability ([5]; 1 nM) | cell viability ([5]; 10 nM) | cell viability ([5]; 100 nM) | cell viability ([5]; 1000 nM) | cell viability ([5]; 10000 nM) | relative viability EC50 [6] | relative viability EC50 [7] | relative viability EC50 [8] | relative viability EC50 [9] | relative viability EC50 [10] | drug sensitivity score [11] | drug sensitivity score [12] | drug sensitivity score [13] | drug sensitivity score [14] | drug sensitivity score [15] |
| --- | --- | --- | --- | --- | --- | --- | --- | --- | --- | --- | --- | --- | --- | --- | --- | --- | --- | --- | --- | --- | --- | --- | --- | --- | --- | --- | --- | --- | --- | --- | --- | --- | --- | --- | --- |
| C#Cc1cccc(Nc2ncnc3cc(OC)c(OCCCCCCC(=O)NO)cc23)c1 [CUDC-101] | 97% | 89.7% | 90.6% | 81.8% | 39.6% | 97.7% | 99.6% | 93.4% | 68.5% | 2% | 96.7% | 98.8% | 81.5% | 37.2% | 9% | 96.3% | 110% | 94.9% | 25.7% | 0.1% | 98.6% | 96% | 94.6% | 80.2% | 8.4% | 1.55 µM | 1.41 µM | 0.419 µM | 0.548 µM | 1.67 µM | 5.4 | 9.6 | 14.1 | 14.7 | 8.2 |
| CC(C(=O)O)c1ccc2c(c1)[nH]c1ccc(Cl)cc12 (stereo not given) [carprofen] | 96.4% | 96.5% | 88.4% | 95.7% | 94.6% | 96.5% | 102% | 96.1% | 100% | 98.7% | 96.5% | 95.5% | 104% | 104% | 94% | 103% | 101% | 90.6% | 96.5% | 99.6% | 107% | 101% | 115% | 99.4% | 101% | > 10 µM | > 10 µM | > 10 µM | > 10 µM | > 10 µM | 0 | 0 | 0 | 0 | 0 |
| N#CC(C#N)=Cc1ccc(O)c(O)c1 [tyrphostin-AG-18] | 88.2% | 96.4% | 93.9% | 89.2% | 91.6% | 96.1% | 98.1% | 95.2% | 96.5% | 92.1% | 93.5% | 104% | 105% | 107% | 111% | 93% | 96.8% | 97.7% | 102% | 87.9% | 96.4% | 92.1% | 96.6% | 94.9% | 94.9% | > 10 µM | > 10 µM | > 10 µM | > 10 µM | > 10 µM | 0 | 0 | 0 | 0 | 0 |
| CCN1/C(=C/C(C)=O)Sc2ccc(OC)cc21 [TG-003] | 98.9% | 92.9% | 96.6% | 99.2% | 95.4% | 106% | 98.7% | 96.9% | 104% | 102% | 99.2% | 105% | 106% | 96.8% | 102% | 98% | 96.9% | 93% | 93.2% | 87.2% | 98.9% | 98.6% | 99.1% | 93.5% | 93.7% | > 10 µM | > 10 µM | > 10 µM | > 10 µM | > 10 µM | 0 | 0 | 0 | 0.1 | 0 |
| C1CCC(/N=C(\NC23CC4CC(CC(C4)C2)C3)N2CCOCC2)CC1 | 101% | 91.7% | 102% | 96.7% | 101% | 96.4% | 94.8% | 102% | 98.6% | 89.5% | 106% | 90.2% | 103% | 89% | 100% | 96.1% | 108% | 91.7% | 113% | 108% | 88.3% | 96% | 90.6% | 98.9% | 104% | > 10 µM | > 10 µM | > 10 µM | > 10 µM | > 10 µM | 0 | 0 | 0 | 0 | 0 |
| CCOc1nc2cccc(C(=O)O)c2n1Cc1ccc(-c2ccccc2-c2noc(=O)[nH]2)cc1 [azilsartan] | 103% | 91.4% | 91.9% | 103% | 95.7% | 102% | 93.6% | 99.5% | 93.3% | 97.5% | 94.2% | 98.2% | 96% | 93% | 91.5% | 93.5% | 103% | 102% | 108% | 102% | 99% | 102% | 98.1% | 103% | 94.3% | > 10 µM | > 10 µM | > 10 µM | > 10 µM | > 10 µM | 0 | 0 | 0 | 0 | 0 |
| N[C@@H]1CCCN(c2c(/C=C3\SC(=O)NC3=O)cccc2-c2ccccc2)C1 [AZD1208] | 103% | 97.5% | 109% | 95.3% | 98.6% | 97.1% | 88.9% | 93.3% | 95.6% | 96.7% | 105% | 94.4% | 92.4% | 86.6% | 99.8% | 92.6% | 104% | 93.5% | 89.8% | 80% | 98.3% | 99.9% | 87.9% | 91.8% | 96.2% | > 10 µM | > 10 µM | > 10 µM | > 10 µM | > 10 µM | 0 | 0 | 0 | 1.2 | 0 |
| CC1=NN=C(c2ccc(N)cc2)c2cc3c(cc2C1)OCO3 | 95.7% | 100% | 107% | 102% | 81% | 93.3% | 93.9% | 99.3% | 96.8% | 94% | 107% | 88.2% | 103% | 87.6% | 95.1% | 109% | 93.2% | 104% | 97.9% | 106% | 94.5% | 102% | 98.4% | 104% | 100% | > 10 µM | > 10 µM | > 10 µM | > 10 µM | > 10 µM | 0.4 | 0 | 0 | 0 | 0 |
| CN(C)CC/C=C1\c2ccccc2CSc2ccccc21 [dosulepin] | 94.1% | 108% | 100% | 117% | 107% | 90.7% | 97.5% | 96.4% | 101% | 96.6% | 90.7% | 104% | 101% | 89.3% | 87% | 111% | 93.5% | 94.1% | 92.6% | 79.9% | 93.4% | 97.3% | 104% | 96.5% | 92.7% | > 10 µM | > 10 µM | > 10 µM | > 10 µM | > 10 µM | 0 | 0 | 0.6 | 0.9 | 0 |
| CC[C@H](C)[C@@H]1NC(=O)[C@H](Cc2ccc(O)cc2)NC(=O)[C@@H](N)CSSC[C@@H](C(=O)N2CCC[C@H]2C(=O)N[C@@H](CC(C)C)C(=O)NCC(N)=O)NC(=O)[C@H](CC(N)=O)NC(=O)[C@H](CCC(N)=O)NC1=O [oxytocin] | 95.5% | 122% | 82.2% | 100% | 100% | 98.2% | 99% | 98.3% | 98.5% | 95.7% | 92% | 93.8% | 98.9% | 103% | 97% | 114% | 96.1% | 105% | 87.7% | 99.2% | 106% | 112% | 98.7% | 105% | 99.2% | > 10 µM | > 10 µM | > 10 µM | > 10 µM | > 10 µM | 0 | 0 | 0 | 0 | 0 |
| Cc1cc(-n2c(=O)[nH]c(=O)n(C)c2=O)ccc1Oc1ccc(SC(F)(F)F)cc1 [toltrazuril] | 104% | 109% | 105% | 97.1% | 97.4% | 97.2% | 95.2% | 93.1% | 99.6% | 92.1% | 98.8% | 83.1% | 105% | 106% | 101% | 90.4% | 107% | 99.5% | 95.9% | 102% | 99.5% | 105% | 101% | 96.3% | 95.8% | > 10 µM | > 10 µM | > 10 µM | > 10 µM | > 10 µM | 0 | 0 | 0 | 0 | 0 |
| COc1cc(C(C)=O)ccc1O [apocynin] | 104% | 94.2% | 100% | 86.8% | 93.9% | 99.8% | 97.9% | 101% | 96.2% | 98.2% | 95.2% | 89.6% | 91.5% | 89.5% | 105% | 95.8% | 95.8% | 104% | 98.8% | 96.8% | 97.8% | 100% | 96.6% | 98.8% | 93.6% | > 10 µM | > 10 µM | > 10 µM | > 10 µM | > 10 µM | 0 | 0 | 0 | 0 | 0 |
| Cc1cc(O)c(-c2ccc([C@@H](C)CN)cc2)c2c1[nH]c(=O)c1sccc12 [OTS514] | 98.6% | 87.1% | 83.6% | 29.9% | 25.5% | 96.3% | 97.8% | 96.6% | 1.1% | 1.1% | 105% | 92.5% | 81.7% | 23.9% | 38.8% | 109% | 99.4% | 46.3% | 3.1% | 1.1% | 102% | 98.8% | 93.2% | 85.4% | 6% | 0.21 µM | 0.291 µM | 0.16 µM | 0.0917 µM | 1.95 µM | 14.9 | 18.2 | 16.7 | 24.2 | 7.6 |
| NC(=O)c1cn([C@@H]2O[C@H](CO)[C@@H](O)[C@H]2O)c2ncnc(N)c2c1=O [API-1] | 92.3% | 92.9% | 85% | 80.1% | 36.4% | 95.7% | 98.8% | 91.1% | 97.5% | 0.9% | 97% | 107% | 87.5% | 52.7% | 20.7% | 106% | 97.9% | 84.9% | 39% | 4.5% | 97% | 89.7% | 94.8% | 93% | 47.3% | 1.53 µM | 2.98 µM | 0.639 µM | 0.544 µM | 2.1 µM | 5.6 | 5.9 | 10.6 | 13.6 | 4 |
